Assays:
[1] = system: human lung cancer in lung of mice; assay: Mouse model bearing human lung cancer in lung (A549 or Anti-Dox-A549 cells injected); settings: HCD 0.0318 or 1.272 mg/kg, PG 0.1615 or 0.646 mg/kg body weight, IT injection to the lung, monitored every five days for thirty days
Method: The animal experiments were approved by the National Dong-Hwa University Animal Ethics Committee and the experimental protocols were used according to the “Guide for the Care and Use of Laboratory Animals” of National Dong-Hwa University. 1×10^7 of A549 cells or Anti-Dox-A549 cells were suspended in PBS to prepare cell suspensions. On day 0, C57/BL6 mice (6-8 weeks old, n=6) were weighted and anesthetic using pentobarbital (5 mg/ml). Then, the mice were injected with the cell suspension (1×10^7 cells per mouse) into the lung by IT. The injection was repeated every 7 days for 21 days. Another group of mice were injected with 10% EtOH as comparative group according to the same procedure set forth above.
After the establishment of human lung cancer in the experimental mice, the mice were maintained for one more week and then treated with HCD (0.0318 or 1.272 mg/kg body weight, in 10% ETOH with PBS), PG (0.1615 or 0.646 mg/kg body weight, in 10% ETOH with PBS) or 10% EtOH by IT injection (intrathecal injection) to the lung. The body weight was monitored every five days for thirty days. After thirty days, the mice were sacrificed and the lungs were checked for marker of human lung adenocarcinoma by H&E and IHC staining. The livers, kidneys and spleens of the mice were also examined to confirm the cytotoxicity of HCD and PG and to see if there was any metastasis happened.

A549 cells = assay: Cell cycle analysis by flow cytometer (PI staining); type: cell-based, human; settings: A549
Method: (§1) The results of Example 2 in cell viability hinted the effects of HCD, PG, and Dox on arresting cell cycle. In this example, the phase of cell cycle of A549 cells and Anti-Dox-A549 cells after the treatment listed in Table 1 was determined by flow cytometer. Briefly, 7×10^4 cells per well were to inoculated in 12-wells plate and incubated overnight at 37° C., 5% CO2. Then, cells were treated according to the treatment listed in Table 1 by indicated time period. After treatment, cells were harvested by trypsin and fixed with 70% ethanol at −20° C. for at least 3 hr. The cells were washed in cold PBS twice and then incubated with 1 ml (v/v) staining solution (20 μg/m1 propidium iodide (PI), 0.1% Triton X-100, 0.2 mg/ml Rnase) at 37° C. for 30 minutes. Lastly, cells were analyzed by flow cytometer (Cytomics™ FC500, Backman, Fullerton, Calif., USA). Data from 10,000 cells were collected for each experimental group.

Anti-Dox-A549 cells = assay: as above; type: cell-based, human; settings: Anti-Dox-A549
Method: as §1

## CCCCCC1=C/C(=C/c2[nH]c(-c3ccc[nH]3)cc2OC)N=C1C [PG, Prodigiosin]
[1]
  body weight of the experimental mice: did not show significantly change
A549 cells; PG 2.5 μM, 6 hr
  G0/G1 (%): 46.3 ± 3.4 %
  G2/M (%): 32.3 ± 3.1 %
  S (%): 17.3 ± 1.2 %
  Sub G1 (%): 0.3 ± 0.1%
A549 cells; PG 2.5 μM, 12 hr
  G0/G1 (%): 62.7 ± 2.7%
  G2/M (%): 27.6 ± 0.7 %
  S (%): 6.6 ± 2.1 %
  Sub G1 (%): 0.4 ± 0.2%
A549 cells; PG 2.5 μM, 24 hr
  G0/G1 (%): 85 ± 0.6^ %
  G2/M (%): 11.6 ± 0.7%
  S (%): 1.9 ± 0.15 %
  Sub G1 (%): 0.26 ± 0.05%
A549 cells; PG 5 μM, 6 hr
  G0/G1 (%): 42.9 ± 2.1 %
  G2/M (%): 34.8 ± 0.9 %
  S (%): 18.2 ± 0.8 %
  Sub G1 (%): 0.26 ± 0.05%
A549 cells; PG 5 μM, 12 hr
  G0/G1 (%): 53.3 ± 1.2 %
  G2/M (%): 33.1 ± 0.2 %
  S (%): 10.0 ± 2.0 %
  Sub G1 (%): 0.36 ± 0.2%
A549 cells; PG 5 μM, 24 hr
  G0/G1 (%): 76.2 ± 8.1 %
  G2/M (%): 22.2 ± 1.1%
  S (%): 3.0 ± 0.75 %
  Sub G1 (%): 0.23 ± 0.05%
A549 cells; PG 10 μM, 6 hr
  G0/G1 (%): 43.8 ± 3.1 %
  G2/M (%): 27 ± 2.9%
  S (%): 18.8 ± 0.5 %
  Sub G1 (%): 0.33 ± 0.05%
A549 cells; PG 10 μM, 12 hr
  G0/G1 (%): 41.6 ± 1.3 %
  G2/M (%): 29.1 ± 3.0 %
  S (%): 16.6 ± 1.4%
  Sub G1 (%): 0.46 ± 0.1%
A549 cells; PG 10 μM, 24 hr
  G0/G1 (%): 43.8 ± 2.4 %
  G2/M (%): 26.5 ± 10.0%
  S (%): 9.1 ± 1.7 %
  Sub G1 (%): 0.9 ± 0.7%
Anti-Dox-A549 cells; PG 2.5 μM, 6 hr
  G0/G1 (%): 58.9 ± 7.1%
  G2/M (%): 23.5 ± 1.9%
  S (%): 18.5 ± 0.5%
  Sub G1 (%): 2.2 ± 0.1 %
Anti-Dox-A549 cells; PG 2.5 μM, 12 hr
  G0/G1 (%): 65.3 ± 2.9%
  G2/M (%): 17.2 ± 6.5%
  S (%): 13.8 ± 4.7%
  Sub G1 (%): 1.6 ± 1.2%
Anti-Dox-A549 cells; PG 2.5 μM, 24 hr
  G0/G1 (%): 81.8 ± 5.7%
  G2/M (%): 8.8 ± 1.4%
  S (%): 3.1 ± 1.3 %
  Sub G1 (%): 0.9 ± 0.3%
Anti-Dox-A549 cells; PG 5 μM, 6 hr
  G0/G1 (%): 56 ± 1.3%
  G2/M (%): 23.6 ± 2.3%
  S (%): 18.7 ± 0.8%
  Sub G1 (%): 1.9 ± 0.3%
Anti-Dox-A549 cells; PG 5 μM, 12 hr
  G0/G1 (%): 62.7 ± 4.7 %
  G2/M (%): 19.2 ± 6.9%
  S (%): 16.8 ± 5.5%
  Sub G1 (%): 2.9 ± 1.0%
Anti-Dox-A549 cells; PG 5 μM, 24 hr
  G0/G1 (%): 76.2 ± 6.0%
  G2/M (%): 13.8 ± 1.7%
  S (%): 3.7 ± 2.0 %
  Sub G1 (%): 4.3 ± 5.3%
Anti-Dox-A549 cells; PG 10 μM, 6 hr
  G0/G1 (%): 54.6 ± 3.0 %
  G2/M (%): 19.8 ± 6.6%
  S (%): 22.9 ± 3.4 %
  Sub G1 (%): 2 ± 0.6%
Anti-Dox-A549 cells; PG 10 μM, 12 hr
  G0/G1 (%): 53.2 ± 2.5 %
  G2/M (%): 22.8 ± 6.4%
  S (%): 21.4 ± 3.7%
  Sub G1 (%): 1.8 ± 0.2%
Anti-Dox-A549 cells; PG 10 μM, 24 hr
  G0/G1 (%): 44.3 ± 7.7 %
  G2/M (%): 27.9 ± 1.9 %
  S (%): 11.7 ± 3.7%
  Sub G1 (%): 6.9 ± 4.3%

— patent US20150329512A1, “METHOD AND PHARMACEUTICAL COMPOSITION FOR TREATING LUNG CANCER” (National Dong Hua University, priority 2014, published 2015)
